Assay results from publication PMC11311998, “AR71, Histamine H3 Receptor Ligand—In Vitro and In Vivo Evaluation (Anti-Inflammatory Activity, Metabolic Stability, Toxicity, and Analgesic Action)” (International Journal of Molecular Sciences, 2024).

Assays:
BV-2 cells = test: cytokine/chemokine panel in LPS-stimulated microglia (Luminex); assay type: cell-based, mouse
Source text: In the research presented in this paper, we extended the study of the anti-inflammatory properties of AR71 by analysing the panel of cytokines/chemokines in mouse microglia with the Luminex® platform. We applied MILLIPLEX® Magnetic Bead Panel that consists of nine different analytes regarding inflammation. Some of the analytes were below the limit of quantification, and the reason for this is explained in the text.
BV-2 cells (the murine microglial cell line) were purchased from the Interlab Cell Line Collection (ICLC) cell bank (ICLC, Genova, Italy). The cells were cultured in DMEM medium (Gibco no. 61965-026, ThermoFisher Scientific, Waltham, MA, USA) containing 10% charcoal-stripped foetal bovine serum (CS-FBS, Biowest no. S181f, batch no. S00NP) in a humidified incubator containing 95% air and 5% CO2 at 37 °C. CS-FBS was used to study the effect of compounds on neuroinflammation in vitro without the confounding effects of some cytokines that are naturally present in serum. Experiments were carried out with BV-2 cells from passages 7 to 13.
The Luminex assay is a form of immunoassay that utilises magnetic microparticles and the same sandwiching techniques as ELISAs. To analyse the panel of cytokines/chemokines in mouse microglia, we used a MILLIPLEX® Magnetic Bead Panel (MCYTOMAG-70K, Millipore, Sigma-Aldrich, Darmstadt, Germany). The following analytes were studied: IFN-γ, IL-1β, IL-4, IL-6, IL-10, IL-12 (p40), IP-10, MIP-2, and TNF-α. The preparation of antibody-immobilised beads, quality controls, mouse cytokine standard, and immunoassay procedure, were performed according to the manufacturer’s protocol. All standards, quality controls, and samples were analysed in duplicate on the Luminex 200 multiplexing instrument (Luminex Corp, Austin, TX, USA). Sample analyte concentrations were determined using Belysa 1.1.0 curve-fitting software and the standard curve data from each run (Millipore, Sigma-Aldrich, Darmstadt, Germany). To perform multiplex cytokine analysis, BV-2 cells (150 × 10^3 cells/well/500 μL in 24-well plate) were pre-treated for 1 h with AR71, and then LPS (1 μg/mL) was added to induce inflammation. The cells were cultured for another 24 h. After this time, cell culture supernatants were collected, centrifuged to remove cell debris, and stored at −80 °C for analysis. To avoid multiple freeze/thaw cycles, the samples were aliquoted.

SH-SY5Y cells [1] = test: cell number / growth, image cytometry; assay type: cell-based; conditions: Homo sapiens
Description: (§1) To evaluate the growth dynamics of SH-SY5Y cells in the presence of AR71, neuroblastoma cells were treated with increasing concentrations (0.39–25 µM) of the compound tested for 24 or 72 h. Using image cytometry, we calculated the DNA content index as a 2N/4N DNA ratio to analyse the cell cycle distribution after 24 and 72 h of incubation with AR71.
SH-SY5Y cells were initially seeded in 96-well plates at a density of 5000 cells per well in 120 μL of medium. After 24 h, the cells were exposed to different concentrations of AR71 for either 24 or 72 h. […] Subsequently, images of 16 fields per well were captured using the ArrayScan VTI HCS Reader from Thermo Fisher Scientific, Inc. (Thermo Fisher Scientific, Waltham, MA, USA), which was equipped with a 5× objective. The cell number was calculated as the sum of the Hoechst-33342-stained cell nuclei using Cell Cycle Bioapplication V3 software and expressed as a per cent of control. […] In the next step, a series of detailed images were acquired using the ArrayScan VTI HCS Reader equipped with a 10× objective to collect at least 500 nuclei/cells per replicate. The DNA cell content of single cells was analysed based on Hoechst-33342 fluorescence intensity of their nuclei using Cell Cycle Bioapplication V3 software and presented as the DNA 2N/4N ratio. […]

SH-SY5Y cells [2] = test: DNA content / cell cycle (2N/4N DNA ratio), image cytometry; assay type: cell-based, human
Description: as §1
SH-SY5Y cells were initially seeded in 96-well plates at a density of 5000 cells per well in 120 μL of medium. After 24 h, the cells were exposed to different concentrations of AR71 for either 24 or 72 h. Following a wash with PBS, the cells were fixed with 4% formaldehyde for 20 min and then stained with 1 µg/mL of Hoechst 33342 for 30 min at room temperature. Subsequently, images of 16 fields per well were captured using the ArrayScan VTI HCS Reader from Thermo Fisher Scientific, Inc. (Thermo Fisher Scientific, Waltham, MA, USA), which was equipped with a 5× objective. The cell number was calculated as the sum of the Hoechst-33342-stained cell nuclei using Cell Cycle Bioapplication V3 software and expressed as a per cent of control. The remaining adherent cells in culture wells reflected the cytotoxic potential of the tested compound. In the next step, a series of detailed images were acquired using the ArrayScan VTI HCS Reader equipped with a 10× objective to collect at least 500 nuclei/cells per replicate. The DNA cell content of single cells was analysed based on Hoechst-33342 fluorescence intensity of their nuclei using Cell Cycle Bioapplication V3 software and presented as the DNA 2N/4N ratio. All experiments were performed three times, each in four replicates. IC50 values were calculated with a non-linear fit to a sigmoidal dose–response curve (log compound vs. normalised response) using GraphPad Prism 6.07. The results are presented as mean ± SEM from at least three independent experiments. Statistical significance was evaluated using one-way ANOVA followed by Dunnett’s test. * p < 0.05, ** p < 0.01, and *** p < 0.001 indicate significant differences compared with the control counterparts.

[3] = metabolic stability in human liver microsomes; assay type: in vitro ADME
Description: The metabolic stability of AR71 was assessed in vitro using human liver microsomes (HLMs). […] After 120 min of incubation with HLMs, 85% of AR71 remained unchanged. However, during this time, six metabolites were formed (Figure S4a–d, Supplementary Materials). The metabolite M1 was formed in the highest amount (5.5%). The others were formed in amounts of 0.6% to 1.2%. Based on an analysis of their molar masses, and with the help of MetaSite 6.0.1, a type of metabolic transformation was proposed. The identified in vitro AR71 metabolic pathways and the most probable site of metabolism predicted by MetaSite 6.0.1 are shown in Table 1.
Metabolic stability was assessed in human liver microsomes (HLMs, Sigma-Aldrich, St. Louis, MO, USA), as previously described. After 120 min of incubation with HLMs, liquid chromatography–mass spectrometry (Waters ACQUITY TQD system with the TQ Detector, Waters, Milford, MA, USA) was used to identify the formed metabolites. MetaSite 6.0.1 software (Molecular Discovery Ltd., Hertfordshire, U.K.) was used to predict the most probable sites of metabolism in silico.

[4] = 1 h pre-treatment, LPS 1 μg/mL, 24 h

## COc1cc(/C=C/C(=O)c2ccc(OCCCN3CCCCC3)cc2)cc(OC)c1OC [AR71, (E)-3-(3,4,5-trimethoxyphenyl)-1-(4-(3-(piperidin-1-yl)propoxy)phenyl)prop-2-en-1-one]
BV-2 cells; [4]
  reduction of IL-1β vs level after LPS stimulation: 2.66 times lower
  reduction of IL-6 vs level after LPS stimulation: 5.94 times lower
  reduction of TNF-α vs level after LPS stimulation: 1.77 times lower
BV-2 cells; in the presence of LPS
  effect on CXCL-10 (IP-10): repressed
BV-2 cells; with LPS
  IL-4 level in the presence of LPS: did not restore the level of IL-4 to the control point
BV-2 cells; without LPS, vs unstimulated BV-2 cells
  IL-4 level, compound alone: half the IL-4 content
SH-SY5Y cells [1]; 24 h incubation
  IC50: 8.46 µM
SH-SY5Y cells [1]; 72 h incubation
  IC50: 3.19 µM
SH-SY5Y cells [2]; 3.125–25 µM, 24 and 72 h
  effect on cell cycle: cell cycle arrest at the G2/M phase (4N)
SH-SY5Y cells [2]; 24 h incubation
  IC50 for 2N/4N DNA ratio: 18.8 µM
SH-SY5Y cells [2]; 72 h incubation
  IC50 for 2N/4N DNA ratio: 4.54 µM
[3]; 120 min incubation with HLMs
  number of metabolites formed: six
  parent compound remaining unchanged: 85%
[3]; 120 min incubation with HLMs, listed as AR-71
  parent compound remaining unchanged: 85.40%
[3]; HLMs
  metabolic stability: rather metabolically stable
